In article PMC7073924, “2-Aminomethylene-5-sulfonylthiazole Inhibitors of Lysyl Oxidase (LOX) and LOXL2 Show Significant Efficacy in Delaying Tumor Growth” (Journal of Medicinal Chemistry, 2019):
Where “and” joins values, the source holds several entries; their conditions need not be identical. Identical values can stand only once. Counter-ions that a name gives are not always drawn. Like-named read-outs stand apart in the source and are kept apart here.

Tests used:
LOXL2 [1] = molecular target: T1, LOXL2 (Homo sapiens, UniProt Q9Y4K0); test: LOXL2 enzyme assay (Promega ROS-Glo, cadaverine substrate); type: biochemical
T1 sequence (Q9Y4K0 26-774): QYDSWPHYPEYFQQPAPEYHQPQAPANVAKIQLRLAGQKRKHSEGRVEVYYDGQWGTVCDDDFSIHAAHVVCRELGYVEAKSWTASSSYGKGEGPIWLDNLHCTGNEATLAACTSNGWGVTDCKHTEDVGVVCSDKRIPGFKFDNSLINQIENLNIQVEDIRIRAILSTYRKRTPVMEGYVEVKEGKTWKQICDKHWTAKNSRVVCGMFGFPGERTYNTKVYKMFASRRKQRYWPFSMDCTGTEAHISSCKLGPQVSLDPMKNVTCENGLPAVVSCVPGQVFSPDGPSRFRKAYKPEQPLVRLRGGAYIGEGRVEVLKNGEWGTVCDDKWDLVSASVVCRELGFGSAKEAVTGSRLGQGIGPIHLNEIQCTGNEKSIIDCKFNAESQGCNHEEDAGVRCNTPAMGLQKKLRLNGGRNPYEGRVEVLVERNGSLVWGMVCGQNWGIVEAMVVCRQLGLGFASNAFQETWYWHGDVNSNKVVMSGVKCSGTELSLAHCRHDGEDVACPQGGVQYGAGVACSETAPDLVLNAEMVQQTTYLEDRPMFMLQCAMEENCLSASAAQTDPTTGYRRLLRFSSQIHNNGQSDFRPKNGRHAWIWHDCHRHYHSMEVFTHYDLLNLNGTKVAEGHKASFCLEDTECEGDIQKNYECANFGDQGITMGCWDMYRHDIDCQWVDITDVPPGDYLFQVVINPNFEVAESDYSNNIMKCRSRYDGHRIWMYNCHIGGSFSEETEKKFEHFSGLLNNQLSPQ
Description: (§1) LOXL2 and LOXL3 were purchased from R&D Systems. LOX, LOXL2, and LOXL3 catalytic activity were determined using the Promega ROS-Glo assay kit with cadaverine dihydrochloride as substrate, BAPN as the reference inhibitor control, a preincubation time of 20 min, 1 h, or 3 h, with nine dilutions from a top concentration of 10 μM or 100 μM.

LOX = molecular target: T2, LOX (Sus scrofa, UniProt P45845); test: LOX enzyme assay (Promega ROS-Glo, cadaverine substrate); type: biochemical, pig
T2 sequence (P45845 1-249): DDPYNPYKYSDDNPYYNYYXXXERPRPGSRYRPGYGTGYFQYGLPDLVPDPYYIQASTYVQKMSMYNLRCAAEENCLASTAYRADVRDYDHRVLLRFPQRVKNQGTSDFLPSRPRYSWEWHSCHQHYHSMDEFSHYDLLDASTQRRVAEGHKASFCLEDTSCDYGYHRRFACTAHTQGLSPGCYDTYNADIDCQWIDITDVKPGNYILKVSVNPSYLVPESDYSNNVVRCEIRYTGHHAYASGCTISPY
Description: as §1

LOXL3 [2] = molecular target: T3, LOXL3 (Homo sapiens, UniProt P58215); test: LOXL3 enzyme assay (Promega ROS-Glo, cadaverine substrate); type: biochemical
T3 sequence (P58215 26-753): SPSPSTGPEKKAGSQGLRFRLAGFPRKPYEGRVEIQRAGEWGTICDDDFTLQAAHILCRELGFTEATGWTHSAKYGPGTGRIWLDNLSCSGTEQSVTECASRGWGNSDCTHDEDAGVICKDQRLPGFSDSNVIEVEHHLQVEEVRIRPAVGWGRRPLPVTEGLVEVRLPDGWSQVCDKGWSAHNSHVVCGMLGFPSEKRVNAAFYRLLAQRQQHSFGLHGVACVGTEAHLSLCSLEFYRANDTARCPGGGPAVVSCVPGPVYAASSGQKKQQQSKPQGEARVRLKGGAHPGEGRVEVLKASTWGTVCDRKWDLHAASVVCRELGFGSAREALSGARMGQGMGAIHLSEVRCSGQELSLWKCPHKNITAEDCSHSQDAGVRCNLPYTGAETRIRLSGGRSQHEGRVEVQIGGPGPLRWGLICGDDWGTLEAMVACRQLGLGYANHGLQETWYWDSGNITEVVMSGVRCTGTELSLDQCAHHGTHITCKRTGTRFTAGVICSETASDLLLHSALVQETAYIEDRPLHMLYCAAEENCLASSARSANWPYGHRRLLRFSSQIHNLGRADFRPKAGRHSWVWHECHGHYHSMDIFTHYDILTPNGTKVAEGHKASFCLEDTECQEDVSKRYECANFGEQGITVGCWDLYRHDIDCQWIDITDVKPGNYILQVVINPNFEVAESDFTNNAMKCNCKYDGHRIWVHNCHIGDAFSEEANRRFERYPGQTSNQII
Description: as §1

LOXL2 [3] = molecular target: T1, LOXL2; type: biochemical
Description: The enzyme/inhibitor mixture was then diluted 100-fold into a solution containing all enzyme reaction components, and the activity of the enzyme was assessed.
LOXL2 catalytic activity was determined using the Amplex Red hydrogen peroxide assay kit with cadaverine dihydrochloride as substrate. […] The enzyme/inhibitor mixture was then diluted 100-fold into a solution containing substrate and detection reagents and read kinetically every 5 min.

LOXL3 [4] = molecular target: T3, LOXL3; design: method as in PMID 30536539, PMID 28471663; settings: literature compounds; cited from earlier work
SSAO [5] = molecular target: T4, SSAO (Homo sapiens, UniProt Q16853); type: biochemical
T4 construct: purchased Sigma
T4 sequence (Q16853 1-763): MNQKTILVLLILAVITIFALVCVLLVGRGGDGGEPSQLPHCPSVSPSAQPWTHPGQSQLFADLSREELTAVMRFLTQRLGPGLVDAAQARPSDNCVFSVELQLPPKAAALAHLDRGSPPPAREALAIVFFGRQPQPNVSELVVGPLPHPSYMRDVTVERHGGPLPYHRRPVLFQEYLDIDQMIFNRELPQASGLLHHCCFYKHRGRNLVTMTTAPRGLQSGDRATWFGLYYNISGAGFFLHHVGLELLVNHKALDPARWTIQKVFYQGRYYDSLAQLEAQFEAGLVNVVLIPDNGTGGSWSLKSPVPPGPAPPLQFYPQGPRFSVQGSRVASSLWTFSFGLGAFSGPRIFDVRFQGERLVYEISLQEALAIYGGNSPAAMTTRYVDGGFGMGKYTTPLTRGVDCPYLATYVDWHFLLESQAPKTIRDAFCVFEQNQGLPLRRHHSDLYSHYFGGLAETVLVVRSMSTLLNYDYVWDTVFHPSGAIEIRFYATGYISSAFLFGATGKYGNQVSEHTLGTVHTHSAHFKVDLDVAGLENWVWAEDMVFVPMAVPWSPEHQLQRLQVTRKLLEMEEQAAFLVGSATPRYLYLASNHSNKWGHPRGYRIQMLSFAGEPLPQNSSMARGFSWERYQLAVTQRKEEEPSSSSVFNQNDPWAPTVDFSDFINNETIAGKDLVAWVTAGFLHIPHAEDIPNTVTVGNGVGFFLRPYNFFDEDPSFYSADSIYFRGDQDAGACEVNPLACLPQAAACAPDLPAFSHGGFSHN
Description: (§2) All amine oxidase assays were performed with concentrations as above. MAO-A and MAO-B enzymes were purchased from Sigma. The catalytic activity of MAO-A and MAO-B was determined using the Promega MAO-Glo assay kit (substrate included), with clorgyline and deprenyl as reference inhibitor controls, respectively. DAO was purchased from Sigma, and the catalytic activity was determined using the Promega ROS-Glo assay kit, with aminoguanidine as the reference inhibitor control. SSAO was purchased from Sigma. SSAO catalytic activity was determined using the Promega MAO-Glo assay kit, with mofegiline as the reference inhibitor control.

DAO = molecular target: T5, DAO (Sus scrofa, UniProt Q9TRC7); type: biochemical; settings: Table 7
T5 construct: purchased Sigma
T5 sequence (Q9TRC7 25-755): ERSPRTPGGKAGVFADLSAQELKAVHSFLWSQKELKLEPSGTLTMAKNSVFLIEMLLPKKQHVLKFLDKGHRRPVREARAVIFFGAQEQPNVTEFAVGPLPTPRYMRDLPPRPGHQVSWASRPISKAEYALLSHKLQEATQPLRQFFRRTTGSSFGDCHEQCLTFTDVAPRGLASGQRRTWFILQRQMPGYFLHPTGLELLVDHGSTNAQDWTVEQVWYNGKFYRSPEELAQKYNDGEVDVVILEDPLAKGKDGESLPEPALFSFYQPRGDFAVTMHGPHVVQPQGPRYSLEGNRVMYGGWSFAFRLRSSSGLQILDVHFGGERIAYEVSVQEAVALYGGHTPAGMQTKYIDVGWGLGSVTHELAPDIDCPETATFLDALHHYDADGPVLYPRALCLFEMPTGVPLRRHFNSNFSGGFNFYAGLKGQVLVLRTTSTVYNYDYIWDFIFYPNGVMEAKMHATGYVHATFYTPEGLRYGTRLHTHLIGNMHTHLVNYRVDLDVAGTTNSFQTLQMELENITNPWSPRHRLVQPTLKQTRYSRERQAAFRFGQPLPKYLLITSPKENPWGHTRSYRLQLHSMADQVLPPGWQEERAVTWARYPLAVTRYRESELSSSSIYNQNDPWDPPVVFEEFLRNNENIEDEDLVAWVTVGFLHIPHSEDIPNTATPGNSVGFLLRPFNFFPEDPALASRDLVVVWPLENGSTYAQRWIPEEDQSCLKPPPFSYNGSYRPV
Description: as §2

MAO-B = molecular target: T6, MAO-B (Homo sapiens, UniProt P27338); type: biochemical; settings: Table 7
T6 construct: purchased Sigma
T6 sequence (P27338 1-520): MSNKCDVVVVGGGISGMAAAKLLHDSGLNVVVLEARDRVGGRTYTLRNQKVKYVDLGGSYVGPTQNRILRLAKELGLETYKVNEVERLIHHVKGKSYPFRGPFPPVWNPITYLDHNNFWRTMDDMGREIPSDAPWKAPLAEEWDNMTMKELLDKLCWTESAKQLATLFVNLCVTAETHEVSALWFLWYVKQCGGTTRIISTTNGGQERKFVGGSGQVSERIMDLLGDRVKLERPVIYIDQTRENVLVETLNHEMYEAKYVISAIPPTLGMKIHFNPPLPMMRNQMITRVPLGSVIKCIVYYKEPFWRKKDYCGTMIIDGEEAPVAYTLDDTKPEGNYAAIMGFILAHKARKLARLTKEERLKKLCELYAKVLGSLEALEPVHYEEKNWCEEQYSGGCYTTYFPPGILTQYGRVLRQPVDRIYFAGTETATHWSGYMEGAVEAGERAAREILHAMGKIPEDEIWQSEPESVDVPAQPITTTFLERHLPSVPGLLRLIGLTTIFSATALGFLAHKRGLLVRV
Description: as §2

MAO-A = molecular target: T7, MAO-A (Homo sapiens, UniProt P21397); type: biochemical; settings: Table 7
T7 construct: purchased Sigma
T7 sequence (P21397 1-527): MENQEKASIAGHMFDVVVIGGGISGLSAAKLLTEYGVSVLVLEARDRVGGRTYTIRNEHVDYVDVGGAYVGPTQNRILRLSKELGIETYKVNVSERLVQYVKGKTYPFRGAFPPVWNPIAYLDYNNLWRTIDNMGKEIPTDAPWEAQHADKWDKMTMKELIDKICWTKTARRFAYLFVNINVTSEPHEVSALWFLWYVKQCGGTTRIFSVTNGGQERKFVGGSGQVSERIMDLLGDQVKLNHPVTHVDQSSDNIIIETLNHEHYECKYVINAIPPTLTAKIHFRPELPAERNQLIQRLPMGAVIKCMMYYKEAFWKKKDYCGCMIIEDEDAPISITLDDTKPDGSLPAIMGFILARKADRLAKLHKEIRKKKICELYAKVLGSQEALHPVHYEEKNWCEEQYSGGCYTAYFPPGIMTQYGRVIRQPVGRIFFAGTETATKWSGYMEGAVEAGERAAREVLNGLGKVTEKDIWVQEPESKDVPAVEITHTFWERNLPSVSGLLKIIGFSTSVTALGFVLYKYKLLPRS
Description: as §2

SSAO [6] = molecular target: T4, SSAO; test: Assessment of compound as a substrate for SSAO (Amplex red); type: biochemical; settings: hydrogen peroxide quantified with Amplex red kit; benzylamine positive control
[7] = supplementary csv, unit inferred

| Structure (SMILES) | IC50 (LOXL3 [2]) | IC50 (LOX; Table 6, 1 h preincubation) | IC50 (SSAO [5]; Table 7) | IC50 (DAO) | IC50 (MAO-B) | IC50 (MAO-A) | other results |
| --- | --- | --- | --- | --- | --- | --- | --- |
| N#CCCN [BAPN, β-aminopropionitrile, reference compound] | 310 nM | – | – | – | – | – | IC50 (LOXL2 [1]; read-out: LOXL2, 20 min, IC50): 4260 nM; IC50 (LOXL2 [1]; read-out: LOXL2, 1 h, IC50): 665 nM; IC50 (LOXL2 [1]; read-out: LOXL2, 3 h, IC50): 372 nM; IC50 (LOXL2 [1]; read-out: LOXL2 IC50): 665 nM; IC50 (LOX): 3.14 µM; LOXL2 inhibition at 10 × IC50 before dilution (LOXL2 [3]): complete inhibition; mode of LOXL2 inhibition (LOXL2 [3]): irreversible inhibitor |
| Cc1c(-c2cccc(S(=O)(=O)N(C)C)c2)c2ncccc2n1C/C(F)=C/CN [Compound 1] | – | – | – | – | – | – | activity for LOXL2 and LOXL3 within x-fold (LOXL3 [4]): ≤ 3 fold |
| NCc1cc(Oc2cccc(C(=O)N3C[C@@H](O)[C@H](F)C3)c2)nc(C(F)(F)F)c1 [Compound 2] | – | – | – | – | – | – | activity for LOXL2 and LOXL3 within x-fold (LOXL3 [4]): ≤ 3 fold |
| Cn1cc(-c2cc(S(C)(=O)=O)cc(S(=O)(=O)c3cnc(CN)s3)c2)cn1 [Compound 21a, (5-((3-(1-Methyl-1H-pyrazol-4-yl)-5-(methylsulfonyl)phenyl)sulfonyl)thiazol-2-yl)methanamine Hydrochloride] | 1220 nM and 1510 nM | 3.42 µM and 2.65 µM | 13.3 µM and 17.2 µM | > 100 µM | > 100 µM | > 100 µM | IC50 (LOXL3 [2]; Table 6, 1 h preincubation): ~1000 nM |
| CCc1cc(-c2cnn(C)c2)cc(S(=O)(=O)c2cnc(CN)s2)c1 [Compound 21b, (5-((3-Ethyl-5-(1-methyl-1H-pyrazol-4-yl)phenyl)sulfonyl)thiazol-2-yl)methanamine Hydrochloride] | – | – | – | – | – | – | IC50 (SSAO [5]): 28.6 µM and 19.6 µM; substrate of SSAO (SSAO [6]): not a substrate of SSAO |
| CS(=O)(=O)c1cc(-c2ccccc2)cc(S(=O)(=O)c2csc(CN)n2)c1 [Compound 22b, (4-((5-(Methylsulfonyl)-[1,1′-biphenyl]-3-yl)sulfonyl)thiazol-2-yl)methanamine Hydrochloride] | 3860 nM and 4260 nM | > 100 µM | > 100 µM | > 100 µM | > 100 µM | > 100 µM | IC50 (LOX; [7]): > 100 µM |
| Cn1cc(-c2cc(S(C)(=O)=O)cc(S(=O)(=O)c3csc(CN)n3)c2)cn1 [Compound 22c, (4-((3-(1-Methyl-1H-pyrazol-4-yl)-5-(methylsulfonyl)phenyl)sulfonyl)thiazol-2-yl)methanamine Hydrochloride] | 7560 nM and 6690 nM | > 100 µM | > 100 µM | > 100 µM | > 100 µM | > 100 µM | IC50 (LOX; [7]): > 100 µM |
